Experiment [1] relates to Tcy2 (DNA, G4) GGTTGGTTGGTTGGTTTT
The experiment in a line: FAM fluorescence quenching. The conditions noted are these: 10 mM Tris-acetate pH 8.0, room temperature, 25 nM DNA.

The test system is the same in experiment [2]. Kind of experiment: circular dichroism. As to conditions: 10 mM MOPS pH 7.0, room temperature, 5 min; 1 μM DNA, 1 ppm cyromazine. A general note: CD spectra are sensitive to the conformation of chiral molecules.
In experiment [3] the test system is Random DNA (DNA, single strand) ATCGACATGTAGCCGATGGC
Kind of experiment: FAM fluorescence quenching. The conditions noted are these: 10 mM Tris-acetate pH 8.0, room temperature; 25 nM DNA; highest tested 100 ppb.

Where [4] appears, read: tested at 50 ppb, no fluorescence change.

As for `Cc1ccc(N=CN(C)C=Nc2ccc(C)cc2C)c(C)c1`, the binding entry in experiment [1] (setting [4]) is on record as “no”.

Take `Nc1nc(N)nc(NC2CC2)n1`: the binding entry was “yes” in experiment [2]; “yes” in experiment [1] (2 min, static quenching); “no” in experiment [3].

For `Cc1nc(C)c(Cl)c(O)c1Cl`, the binding result in experiment [1] (setting [4]) is given as “no”.

For the compound `CS(=O)(=O)c1ccc([C@@H](O)[C@@H](CO)NC(=O)C(Cl)Cl)cc1`, the binding entry in experiment [1] (setting [4]) is “no”.

Turning to `CN(C)[C@@H]1C(=O)C(C(N)=O)=C(O)[C@@]2(O)C(=O)C3=C(O)c4c(O)cccc4[C@@](C)(O)[C@H]3[C@H](O)[C@@H]12`, the binding entry in experiment [1] (setting [4]) was “no”.

As to `c1ccc([C@H]2CN3CCSC3=N2)cc1`, the binding result in experiment [1] (setting [4]) is “no”.

Consider `O=C(N[C@H](CO)[C@H](O)c1ccc([N+](=O)[O-])cc1)C(Cl)Cl`, for which the binding result in experiment [1] (setting [4]) is given as “no”.
